Read-outs that look alike come from different tables or passages of the source.
Legend:
[1] = tested on: Colletotrichum lindemuthianum; experiment: Colletotrichum lindemuthianum in vitro cell test; format: cell-based; settings: 144 h, 6 days incubation, read-out: efficacy (inhibition of fungal growth; no direct activity); for inhibition at 5 ppm: 5 ppm of active ingredient; for inhibition at 20 ppm: 20 ppm of active ingredient
Method: (§1) • Solvent: DMSO • Culture medium: 14.6 g anhydrous D-glucose (VWR), 7.1 g Mycological Peptone (Oxoid), 1.4 g granulated Yeast Extract (Merck), QSP 1 liter • Inoculum: spores suspension Fungicides were solubilized in DMSO and the solution used to prepare the required range of concentrations. The final concentration of DMSO used in the assay was ≤[…]1%. A spore suspension of C. lindemuthianum was prepared and diluted to the desired spore density. Fungicides were evaluated for their ability to inhibit spores germination and mycelium growth in liquid culture assay. The compounds were added in the desired concentration to the culture medium with spores. After 6 days incubation, fungi-toxicity of compounds was determined by spectrometric measurement of mycelium growth. Inhibition of fungal growth was determined by comparing the absorbance values in wells containing the fungicides with the absorbance in control wells without fungicides.

Uromyces appendiculatus = experiment: In vivo preventive test on Uromyces appendiculatus (bean rust); settings: 240 h, sprayed 72 hours before inoculation, evaluated 10 days after inoculation, read-out: efficacy; for pest or weed control at 31 ppm: 31 ppm of active ingredient; for pest or weed control at 125 ppm: 125 ppm of active ingredient; for pest or weed control at 500 ppm: 500 ppm of active ingredient
Method: (§2) The tested active ingredients were prepared by homogenization in a mixture of acetone/Dimethyl sulfoxide/Tween®, and then diluted with water to obtain the desired active material concentration.
The young plants of bean were treated by spraying the active ingredient prepared as described above. Control plants were treated only with an aqueous solution of acetone/Dimethyl sulfoxide/Tween®.
After 72 hours, the plants were contaminated by spraying the leaves with an aqueous suspension of Uromyces appendiculatus spores. The contaminated bean plants were incubated for 24 hours at 20° C. and at 100% relative humidity and then for 9 days at 20° C. and at 70-80% relative humidity.
The test was evaluated 10 days after the inoculation. 0% means an efficacy which corresponds to that of the control plants while an efficacy of 100% means that no disease was observed.

Alternaria alternata = Alternaria alternata in vitro cell test; format: cell-based; settings: 120 h, 5 days incubation, read-out: efficacy (inhibition of fungal growth; no direct activity); for inhibition at 5 ppm: 5 ppm of active ingredient; for inhibition at 20 ppm: 20 ppm of active ingredient
Method: as §1, with “of A. alternata” for “of C. lindemuthianum”, “inhibit spore” for “inhibit spores”, “After 5” for “After 6”

[2] = tested on: Xanthomonas campestris pv. campestris; experiment: Xanthomonas campestris pv. campestris in vitro cell test; format: cell-based; settings: 24 h of incubation, read-out: efficacy (inhibition of bacteria growth; no direct activity); for inhibition at 5 ppm: 5 ppm of active ingredient; for inhibition at 20 ppm: 20 ppm of active ingredient
Method: (§3) • Solvent: DMSO • Culture medium: LB broth medium (Luria Broth Miller) Sigma • Inoculum: bacteria suspension Compounds were solubilized in DMSO and the solution used to prepare the required range of concentrations. The final concentration of DMSO used in the assay was ≤1%. Inoculum was prepared from a pre-culture of bacteria grown in liquid medium and diluted to the desired optical density (OD). Compounds were evaluated for their ability to inhibit bacteria growth in liquid culture assay. The compounds were added in the desired concentrations to culture medium containing the bacteria suspension. After 24 h of incubation, the efficacy of compounds was determined by spectrometric measurement of bacteria growth. Inhibition was determined by comparing the absorbance values in wells containing the compounds with the absorbance in control wells without active ingredients.

Peronospora parasitica = experiment: In vivo preventive test on Peronospora parasitica (Crucifer downy mildew) on cabbage; settings: Hyaloperonospora parasitica, 120 h, sprayed 72 hours before inoculation, evaluated 5 days after inoculation, read-out: efficacy; for pest or weed control at 31 ppm: 31 ppm of active ingredient; for pest or weed control at 125 ppm: 125 ppm of active ingredient; for pest or weed control at 500 ppm: 500 ppm of active ingredient
Method: as §2
(§4) The young plants of cabbage were treated by spraying the active ingredient prepared as described above. Control plants were treated only with an aqueous solution of acetone/Dimethyl sulfoxide/Tween®.
After 72 hours, the plants were contaminated by spraying the leaves with an aqueous suspension of Peronospora parasitica spores. The contaminated cabbage plants were incubated for 5 days at 20° C. and at 100% relative humidity.
The test was evaluated 5 days after the inoculation. 0% means an efficacy which corresponds to that of the control plants while an efficacy of 100% means that no disease was observed.

[3] = tested on: Pseudomonas syringae pv. tomato; experiment: Pseudomonas syringae pv. tomato in vitro cell test; format: cell-based; settings: 20 ppm of active ingredient, 24 h of incubation, read-out: efficacy (inhibition of bacteria growth; no direct activity)
Method: as §3

[4] = tested on: salicylate responsive promoter sequence of the PR1 (pathogenesis-related protein I) gene (AT2G14610); experiment: Induction of defense gene expression in Arabidopsis thaliana (PR1 promoter-GFP reporter plants); format: in vivo; settings: 72 h, 3rd day after spraying, mock treated leaves set as 1.00, read-out: relative fluorescence value
Method: Arabidopsis thaliana reporter plants containing the coding sequence of a green fluorescent protein (GFP) linked to the salicylate responsive promoter sequence of the PR1 (pathogenesis-related protein I) gene (AT2G14610) were grown for five days and then sprayed with compounds. On the 3rd day after spraying, plant fluorescence was assessed with a MacroFluo instrument from Leica Microsystems (Wetzlar, Germany). Fluorescences were quantified with the Meta-Morph Microscopy Automation & Image Analysis Software (Molecular Devices, Sunnyvale, Calif., United States). Background fluorescence in mock treated leaves was set as 1.00.

[5] = LogP by HPLC on reversed phase columns (EEC directive 79/831 Annex V.A8); format: physicochemical; settings: reversed phase HPLC columns
Method in brief: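 LogP derived from retention time, interpolated linearly between bracketing alkan-2-one standards (3 to 16 carbons). Where several values exist for one method, all are listed with "+"; UV spectra 200–400 nm at peak maxima gave lambda-max.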

[6] = tested on: Xanthomonas campestris pv. campestris; experiment: In vivo preventive test on Xanthomonas campestris pv. campestris (black rot on cabbage); settings: Xanthomonas campestris, sprayed 72 hours before inoculation, evaluated 8 or 10 days after inoculation, read-out: efficacy; for pest or weed control at 500 ppm: 500 ppm of active ingredient; for pest or weed control at 125 ppm: 125 ppm of active ingredient; for pest or weed control at 31 ppm: 31 ppm of active ingredient
Method: as §2, §4
After 72 hours, the plants were contaminated by spraying the leaves with an aqueous bacteria suspension of Xanthomonas campestris pv. campestris. The contaminated cabbage plants were incubated for 8 or 10 days at 27° C. at 95% relative humidity.
The test was evaluated 8 or 10 days after the inoculation. 0% means an efficacy which corresponds to that of the control plants while an efficacy of 100% means that no disease was observed.

SMILES | inhibition at 5 ppm [1] [%] | inhibition at 20 ppm [1] [%] | pest or weed control at 31 ppm (Uromyces appendiculatus) [%] | pest or weed control at 125 ppm (Uromyces appendiculatus) [%] | pest or weed control at 500 ppm (Uromyces appendiculatus) [%] | inhibition at 5 ppm (Alternaria alternata) [%] | inhibition at 20 ppm (Alternaria alternata) [%] | inhibition at 5 ppm [2] [%] | inhibition at 20 ppm [2] [%] | pest or weed control at 31 ppm (Peronospora parasitica) [%] | pest or weed control at 125 ppm (Peronospora parasitica) [%] | pest or weed control at 500 ppm (Peronospora parasitica) [%] | inhibition at 20 ppm [3] [%] | fold induction at 75 ppm [4] | fold induction at 300 ppm [4] | chromatographic logP ([5]; method [a]) | pest or weed control at 500 ppm [6] [%] | pest or weed control at 125 ppm [6] [%] | pest or weed control at 31 ppm [6] [%] | chromatographic logP ([5]; preparation examples, method not indicated, read-out: Log P)
CCOC(=O)C(CC(N)=O)NC(=O)c1sc(Br)c(Br)c1C (stereo not shown) [I.016] | ≤ 30 | ≤ 30 | 90 to 100 | 90 to 100 | 80 to 89 | ≤ 30 | ≤ 30 | ≤ 30 | ≤ 30 | 90 to 100 | 90 to 100 | 90 to 100 | ≤ 30 | > 2 | > 2 | 2.26 |  |  |  | 
CCOC(=O)C(COC)NC(=O)c1sc(Br)c(Br)c1C (stereo not shown) [I.034] | ≤ 30 |  |  |  | 90 to 100 | ≤ 30 | ≤ 30 | ≤ 30 | ≤ 30 |  |  |  | ≤ 30 |  | > 2 | 3.46 | 80 to 89 |  |  | 
COC(=O)[C@H](CCCNC(=N)N)NC(=O)c1sc(Br)c(Br)c1C [I.035] | ≤ 30 | ≤ 30 |  | 80 to 89 | 80 to 89 | ≤ 30 |  | ≤ 30 | ≤ 30 |  | 70 to 79 | 80 to 89 | ≤ 30 |  | > 2 | 1.74 |  | 80 to 89 |  | 
CCSC(=O)C1(NC(=O)c2sc(Cl)c(Cl)c2C)CC1 [I.049, S-ethyl 1-{[(4,5-dichloro-3-methyl-2-thienyl)carbonyl]amino}cyclopropanecarbothioate] | ≤ 30 |  | 70 to 79 | 90 to 100 | 80 to 89 | ≤ 30 |  | ≤ 30 | ≤ 30 | 90 to 100 | 90 to 100 | 90 to 100 | ≤ 30 | > 2 | > 2 |  | 80 to 89 |  | 80 to 89 | 3.67
Cc1c(C(=O)NC(Cc2c[nH]c3ccccc23)C(=O)O)sc(Cl)c1Cl (stereo not shown) [I.070] | ≤ 30 | ≤ 30 |  |  | 90 to 100 | ≤ 30 | ≤ 30 | ≤ 30 | ≤ 30 | 70 to 79 | 90 to 100 | 90 to 100 | ≤ 30 |  | > 2 | 3.12 |  | 80 to 89 | 70 to 79 | 
Cc1c(C(=O)NC(CC(N)=O)C(=O)O)sc(Br)c1Br (stereo not shown) [I.076] | ≤ 30 | ≤ 30 |  | 80 to 89 | 90 to 100 | ≤ 30 | ≤ 30 | ≤ 30 | ≤ 30 |  | 90 to 100 | 90 to 100 | ≤ 30 |  | > 2 | 1.73 |  |  | 70 to 79 | 
COC(=O)CC[C@H](NC(=O)c1sc(Br)c(Br)c1C)C(=O)OC [I.136] | ≤ 30 | ≤ 30 | 90 to 100 | 90 to 100 | 90 to 100 | ≤ 30 | ≤ 30 | ≤ 30 | ≤ 30 | 80 to 89 | 90 to 100 | 90 to 100 | ≤ 30 | > 2 | > 2 | 3.17 |  |  |  | 
CCOC(=O)C(NC(=O)c1sc(Cl)c(Cl)c1C)C(F)(F)F (stereo not shown) [I.164] | ≤ 30 | ≤ 30 | 90 to 100 | 90 to 100 |  | ≤ 30 | ≤ 30 | ≤ 30 | ≤ 30 | 90 to 100 | 90 to 100 | ≥ 90 | ≤ 30 | > 2 | > 2 | 4.07 |  |  | 80 to 89 | 
COC(=O)C1(NC(=O)c2sc(Cl)c(Cl)c2C)CCC1 [I.171] | ≤ 30 |  | 80 to 89 | 90 to 100 |  | ≤ 30 | ≤ 30 | ≤ 30 | ≤ 30 | 90 to 100 | 90 to 100 |  | ≤ 30 | > 2 | > 2 | 3.5 |  | 70 to 79 |  | 

— patent publication US12509437B2, “Substituted thiophene carboxamides and derivatives thereof as microbicides” (Bayer Aktiengesellschaft, priority 2019, dated 2025)
